The target in one assay is human V1a receptor (Homo sapiens, UniProt P37288). Kind of assay: Cellular in vitro assay for determining vasopressin receptor activity, V1a receptor cell line (photoprotein luminescence). The class given is cell-based. As to conditions: for IC50: CHO cell line transfected with the human V1a receptor, agonist [Arg8]-vasopressin at EC50 concentration, read-out: IC50 hV1a; for ratio IC50 hV2/hV1a: selectivity ratio of the cellular IC50 values. The gist of the method:
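CHO K1 cells stably expressing human V1a receptor with aequorin photoprotein, loaded overnight with coelenterazine. Compounds preincubated 10 min at various concentrations, then challenged with [Arg^8]-vasopressin at EC50 concentration. Calcium-driven luminescence read immediately; IC50 values derived.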

A further assay addresses T1, human V2 receptor (Homo sapiens, UniProt P30518).
T1 construct: expressed in transfected cells; host or cells: CHO K1 (ATCC) expressing firefly luciferase under a CRE-responsive promoter
Kind of assay: Cellular in vitro assay for determining vasopressin receptor activity, V2 receptor cell line (CRE-luciferase). The class given is cell-based. As to conditions: CHO cell line transfected with the human V2 receptor; agonist [Arg8]-vasopressin at EC50 concentration; read-out: IC50 hV2.

The values that follow come from patent US11331314B2, “Amine substituted triazole derivatives and uses thereof” (Bayer Pharma Aktiengesellschaft, priority 2017, dated 2022).

T1 sequence (P30518 whole entry): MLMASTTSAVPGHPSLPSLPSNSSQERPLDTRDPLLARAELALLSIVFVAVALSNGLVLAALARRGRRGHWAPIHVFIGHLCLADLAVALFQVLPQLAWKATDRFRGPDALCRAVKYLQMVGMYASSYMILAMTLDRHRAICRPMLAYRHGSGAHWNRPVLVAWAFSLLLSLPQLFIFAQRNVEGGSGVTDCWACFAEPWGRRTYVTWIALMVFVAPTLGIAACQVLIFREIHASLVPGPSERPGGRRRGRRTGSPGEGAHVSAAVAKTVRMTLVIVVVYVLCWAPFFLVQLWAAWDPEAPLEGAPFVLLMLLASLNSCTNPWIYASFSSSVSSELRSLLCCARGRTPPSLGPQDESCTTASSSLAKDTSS
human V1a receptor, sequence (P37288 whole entry): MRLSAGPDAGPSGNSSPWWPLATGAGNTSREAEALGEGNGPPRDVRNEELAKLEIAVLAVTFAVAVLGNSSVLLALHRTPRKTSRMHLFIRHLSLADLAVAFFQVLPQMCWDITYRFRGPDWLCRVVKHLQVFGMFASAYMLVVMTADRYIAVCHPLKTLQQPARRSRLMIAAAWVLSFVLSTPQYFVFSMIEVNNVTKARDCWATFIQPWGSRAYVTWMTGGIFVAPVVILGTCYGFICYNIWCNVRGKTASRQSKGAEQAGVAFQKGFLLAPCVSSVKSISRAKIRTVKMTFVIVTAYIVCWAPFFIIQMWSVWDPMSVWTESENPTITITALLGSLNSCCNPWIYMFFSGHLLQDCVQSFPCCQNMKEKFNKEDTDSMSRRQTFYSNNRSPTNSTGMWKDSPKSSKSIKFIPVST

As usually defined, the IC50 is the concentration that gives 50% inhibition. As to `NC(=O)[C@@H]1CCCN1c1nc(Cn2nc(-c3ccc(Cl)cc3)n(C[C@H](O)C(F)(F)F)c2=O)nn1-c1ccccc1Cl` [Example 58, 1-[1-(2-Chlorophenyl)-3-({3-(4-chlorophenyl)-5-oxo-4-[(2S)-3,3,3-trifluoro-2-hydroxypropyl]-4,5-dihydro-1H-1,2,4-triazol-1-yl}methyl)-1H-1,2,4-triazol-5-yl]-L-prolinamide], on human V1a receptor, the IC50 turned out to be 1.65 nM and the “ratio IC50 hV2/hV1a” value amounted to 13.3. At human V2 receptor, the IC50 is 22 nM.
As for `NC(=O)[C@H]1CCCN1c1nc(Cn2nc(-c3ccc(Cl)cc3)n(C[C@H](O)C(F)(F)F)c2=O)nn1-c1ccccc1Cl` [Example 59, 1-[1-(2-Chlorophenyl)-3-({3-(4-chlorophenyl)-5-oxo-4-[(2S)-3,3,3-trifluoro-2-hydroxypropyl]-4,5-dihydro-1H-1,2,4-triazol-1-yl}methyl)-1H-1,2,4-triazol-5-yl]-D-prolinamide], the figures for the IC50 on human V1a receptor and at human V2 receptor were 2.3 nM and 39.5 nM, respectively. In addition, the “ratio IC50 hV2/hV1a” value at human V1a receptor turned out to be 17.2.
Turning to `NCCNc1nc(Cn2nc(-c3ccc(Cl)cc3)n(C[C@H](O)C(F)(F)F)c2=O)nn1-c1ccccc1Cl` [Example 70, 2-({5-[(2-Aminoethyl)amino]-1-(2-chlorophenyl)-1H-1,2,4-triazol-3-yl}methyl)-5-(4-chlorophenyl)-4-[(2S)-3,3,3-trifluoro-2-hydroxypropyl]-2,4-dihydro-3H-1,2,4-triazol-3-one], at human V1a receptor, the IC50 was determined as 0.9 nM and the “ratio IC50 hV2/hV1a” value is 24.4. The concentration for half-maximal inhibition (IC50) at human V2 receptor is 22 nM.
For `CC(=O)NCCNc1nc(Cn2nc(-c3ccc(Cl)cc3)n(C[C@H](O)C(F)(F)F)c2=O)nn1-c1ccccc1Cl` [Example 71, N-(2-{[1-(2-Chlorophenyl)-3-({3-(4-chlorophenyl)-5-oxo-4-[(2S)-3,3,3-trifluoro-2-hydroxypropyl]-4,5-dihydro-1H-1,2,4-triazol-1-yl}methyl)-1H-1,2,4-triazol-5-yl]amino}ethyl)acetamide] the same measures were 0.44 nM, 5.5 and 2.4 nM.
For the compound `O=c1n(Cc2nc(N3CCNCC3)n(-c3ccccc3Cl)n2)nc(-c2ccc(Cl)cc2)n1C[C@H](O)C(F)(F)F` [Example 72, 5-(4-Chlorophenyl)-2-{[1-(2-chlorophenyl)-5-(piperazin-1-yl)-1H-1,2,4-triazol-3-yl]methyl}-4-[(2S)-3,3,3-trifluoro-2-hydroxypropyl]-2,4-dihydro-3H-1,2,4-triazol-3-one], the IC50 worked out at 0.58 nM on human V1a receptor and 17.5 nM at human V2 receptor. Moreover, the “ratio IC50 hV2/hV1a” value on human V1a receptor was determined as 30.2.
With `O=c1n(Cc2nc(NCC3CS(=O)(=O)C3)n(-c3ccccc3Cl)n2)nc(-c2ccc(Cl)cc2)n1C[C@H](O)C(F)(F)F` [Example 73, 5-(4-Chlorophenyl)-2-{[1-(2-chlorophenyl)-5-{[(1,1-dioxidothietan-3-yl)methyl]amino}-1H-1,2,4-triazol-3-yl]methyl}-4-[(2S)-3,3,3-trifluoro-2-hydroxypropyl]-2,4-dihydro-3H-1,2,4-triazol-3-one], the values for the IC50 on human V1a receptor and on human V2 receptor were 1.13 nM and 9.5 nM, respectively. Also, at human V1a receptor, the “ratio IC50 hV2/hV1a” value came out at 8.4.
`NC(=O)C1CN(c2nc(Cn3nc(-c4ccc(Cl)cc4)n(C[C@H](O)C(F)(F)F)c3=O)nn2-c2ccccc2Cl)C1` [Example 74, 1-[1-(2-Chlorophenyl)-3-({3-(4-chlorophenyl)-5-oxo-4-[(2S)-3,3,3-trifluoro-2-hydroxypropyl]-4,5-dihydro-1H-1,2,4-triazol-1-yl}methyl)-1H-1,2,4-triazol-5-yl]azetidine-3-carboxamide]: on human V1a receptor, the IC50 amounted to 0.48 nM and the “ratio IC50 hV2/hV1a” value came to 7.5. In addition, the IC50 at human V2 receptor turned out to be 3.6 nM.
As for `CC(=O)N1CCN(c2nc(Cn3nc(-c4ccc(Cl)cc4)n(C[C@H](O)C(F)(F)F)c3=O)nn2-c2ccccc2Cl)CC1` [Example 75, 2-{[5-(4-Acetylpiperazin-1-yl)-1-(2-chlorophenyl)-1H-1,2,4-triazol-3-yl]methyl}-5-(4-chlorophenyl)-4-[(2S)-3,3,3-trifluoro-2-hydroxypropyl]-2,4-dihydro-3H-1,2,4-triazol-3-one], the IC50 at human V1a receptor came out at 0.81 nM; on human V2 receptor it was 8.9 nM. Moreover, the “ratio IC50 hV2/hV1a” value on human V1a receptor is listed as 11.0.
Consider `CC1(C)CN(c2nc(Cn3nc(-c4ccc(Cl)cc4)n(C[C@H](O)C(F)(F)F)c3=O)nn2-c2ccccc2Cl)CCN1` [Example 76, 5-(4-Chlorophenyl)-2-{[1-(2-chlorophenyl)-5-(3,3-dimethylpiperazin-1-yl)-1H-1,2,4-triazol-3-yl]methyl}-4-[(2S)-3,3,3-trifluoro-2-hydroxypropyl]-2,4-dihydro-3H-1,2,4-triazol-3-one], for which, at human V1a receptor, the IC50 came to 0.42 nM and the “ratio IC50 hV2/hV1a” value is 108.4. Besides, on human V2 receptor, the IC50 is 45 nM.
Regarding `CC1(CNc2nc(Cn3nc(-c4ccc(Cl)cc4)n(C[C@H](O)C(F)(F)F)c3=O)nn2-c2ccccc2Cl)COC1` [Example 78, 5-(4-Chlorophenyl)-2-{[1-(2-chlorophenyl)-5-{[(3-methyloxetan-3-yl)methyl]amino}-1H-1,2,4-triazol-3-yl]methyl}-4-[(2S)-3,3,3-trifluoro-2-hydroxypropyl]-2,4-dihydro-3H-1,2,4-triazol-3-one], on human V1a receptor, the IC50 was 0.79 nM and the “ratio IC50 hV2/hV1a” value was determined as 2.1. For the same compound, the IC50 at human V2 receptor was 1.63 nM.
As to `COCCNc1nc(Cn2nc(-c3ccc(Cl)cc3)n(C[C@H](O)C(F)(F)F)c2=O)nn1-c1ccccc1Cl` [Example 79, 5-(4-Chlorophenyl)-2-({1-(2-chlorophenyl)-5-[(2-methoxyethyl)amino]-1H-1,2,4-triazol-3-yl}methyl)-4-[(2S)-3,3,3-trifluoro-2-hydroxypropyl]-2,4-dihydro-3H-1,2,4-triazol-3-one], the IC50 was 0.32 nM at human V1a receptor and 2.19 nM on human V2 receptor. Besides, the “ratio IC50 hV2/hV1a” value at human V1a receptor is 6.8.
For the compound `O=c1n(Cc2nc(NCCO)n(-c3ccccc3Cl)n2)nc(-c2ccc(Cl)cc2)n1C[C@H](O)C(F)(F)F` [Example 80, 5-(4-Chlorophenyl)-2-({1-(2-chlorophenyl)-5-[(2-hydroxyethyl)amino]-1H-1,2,4-triazol-3-yl}methyl)-4-[(2S)-3,3,3-trifluoro-2-hydroxypropyl]-2,4-dihydro-3H-1,2,4-triazol-3-one], the IC50 was 0.36 nM on human V1a receptor and 2.79 nM on human V2 receptor. On human V1a receptor, the “ratio IC50 hV2/hV1a” value was found to be 7.8.
In the case of `O=c1n(Cc2nc(N3CC(F)(F)C3)n(-c3ccccc3Cl)n2)nc(-c2ccc(Cl)cc2)n1C[C@H](O)C(F)(F)F` [Example 81, 5-(4-Chlorophenyl)-2-{[1-(2-chlorophenyl)-5-(3,3-difluoroazetidin-1-yl)-1H-1,2,4-triazol-3-yl]methyl}-4-[(2S)-3,3,3-trifluoro-2-hydroxypropyl]-2,4-dihydro-3H-1,2,4-triazol-3-one], at human V1a receptor, the IC50 came out at 1.6 nM and the “ratio IC50 hV2/hV1a” value was 11.0. Further, on human V2 receptor, the IC50 came to 17.7 nM.
With `CC(C)(O)CNc1nc(Cn2nc(-c3ccc(Cl)cc3)n(C[C@H](O)C(F)(F)F)c2=O)nn1-c1ccccc1Cl` [Example 82, 5-(4-Chlorophenyl)-2-({1-(2-chlorophenyl)-5-[(2-hydroxy-2-methylpropyl)amino]-1H-1,2,4-triazol-3-yl}methyl)-4-[(2S)-3,3,3-trifluoro-2-hydroxypropyl]-2,4-dihydro-3H-1,2,4-triazol-3-one], on human V1a receptor, the IC50 was determined as 0.86 nM and the “ratio IC50 hV2/hV1a” value came to 7.5. Also, the IC50 on human V2 receptor was determined as 6.47 nM.
As for `O=c1n(Cc2nc(N3CCOCC3)n(-c3ccccc3Cl)n2)nc(-c2ccc(Cl)cc2)n1C[C@H](O)C(F)(F)F` [Example 83, 5-(4-Chlorophenyl)-2-{[1-(2-chlorophenyl)-5-(morpholin-4-yl)-1H-1,2,4-triazol-3-yl]methyl}-4-[(2S)-3,3,3-trifluoro-2-hydroxypropyl]-2,4-dihydro-3H-1,2,4-triazol-3-one], the IC50 on human V1a receptor turned out to be 0.56 nM; at human V2 receptor it was 14.3 nM. Also, the “ratio IC50 hV2/hV1a” value at human V1a receptor worked out at 25.7.
With `CN(CCO)c1nc(Cn2nc(-c3ccc(Cl)cc3)n(C[C@H](O)C(F)(F)F)c2=O)nn1-c1ccccc1Cl` [Example 84, 5-(4-Chlorophenyl)-2-({1-(2-chlorophenyl)-5-[(2-hydroxyethyl)(methyl)amino]-1H-1,2,4-triazol-3-yl}methyl)-4-[(2S)-3,3,3-trifluoro-2-hydroxypropyl]-2,4-dihydro-3H-1,2,4-triazol-3-one], the values for the IC50 at human V1a receptor and on human V2 receptor were 0.83 nM and 12 nM, respectively. The “ratio IC50 hV2/hV1a” value on human V1a receptor came out at 14.4.
The like results for `COCCN(C)c1nc(Cn2nc(-c3ccc(Cl)cc3)n(C[C@H](O)C(F)(F)F)c2=O)nn1-c1ccccc1Cl` [Example 85, 5-(4-Chlorophenyl)-2-({1-(2-chlorophenyl)-5-[(2-methoxyethyl)(methyl)amino]-1H-1,2,4-triazol-3-yl}methyl)-4-[(2S)-3,3,3-trifluoro-2-hydroxypropyl]-2,4-dihydro-3H-1,2,4-triazol-3-one] were, in that order, 0.58 nM, 9.76 nM and 16.9.
In the case of `O=c1n(Cc2nc(N3CC4(COC4)C3)n(-c3ccccc3Cl)n2)nc(-c2ccc(Cl)cc2)n1C[C@H](O)C(F)(F)F` [Example 86, 5-(4-Chlorophenyl)-2-{[1-(2-chlorophenyl)-5-(2-oxa-6-azaspiro[3.3]hept-6-yl)-1H-1,2,4-triazol-3-yl]methyl}-4-[(2S)-3,3,3-trifluoro-2-hydroxypropyl]-2,4-dihydro-3H-1,2,4-triazol-3-one], at human V1a receptor, the IC50 came to 0.98 nM and the “ratio IC50 hV2/hV1a” value is reported as 6.8. Further, at human V2 receptor, the IC50 is 6.66 nM.
